# Assay results as given in patent US8722052B2, “Vaccinia virus protein A46 peptide and use thereof” (priority 2008, dated 2014).
# Ends that are not written are not given here.
# Experiments:
# TRAM = target: T1, TRAM (Homo sapiens, UniProt Q86XR7); experiment: His peptide pulldown of overexpressed Flag-TRAM from HEK293_T lysates; assay type: binding; details: 25 μM His-peptide, Ni-agarose beads, 2 hr at 4° C.
# T1 construct: expressed in transfected cells; host or cells: HEK293_T, lysed in 1% NP-40 buffer
# Method: (§1) HEK293_T cells were seeded in 6 well plate (1.5×10^5 cells/ml) 24 hours before transfection with 1 μg/well Flag-Mal and 2 μg/well Flag-TRAM encoding plasmids. The total amount of plasmid DNA transfected into the cells was made up to […] by adding pcDNA. 24 hours post-transfection cells were lysed in 1% NP-40 lysis buffer containing 20 mM imidazole. The experimental lysates were incubated with 25 μM His-A464 peptide ((H-H-H-H-H-H-[…]) (SEQ ID NO. 66) and 40 μL of Ni-agarose beads for 2 hr at 4° C. Control samples were incubated with either beads only or beads and 25 μM His-A467 peptide (H-H-H-H-H-H-[…]) (SEQ ID NO. 67). After incubation beads were washed 5 times in lysis buffer with imidazole. Proteins were resolved by SDS-PAGE, and transferred membranes immunoblotted for Flag. Data is representative of four experiments; and
# (§2) HEK293_T cells were seeded in 6 well plates (1.5×10^5 cells/ml) 24 hours before transfection. 8 μl of GeneJuice was mixed with 32 μl of serum-free DMEM (SFM) per transfection and incubated for 5 min at room temperature before adding 1 μg per transfection of Flag-Mal or 2 μg of Flag-TRAM encoding plasmid DNA. GeneJuice/SFM/DNA mixture was then incubated for 15 min at room temperature before adding to the cells. […] The signal was read using Odyssey Infrared Imaging System, LI-COR® Biosciences.
# Mal = target: T2, Mal (Homo sapiens, UniProt P58753); experiment: His peptide pulldown of overexpressed Flag-Mal from HEK293_T lysates; assay type: binding; details: 25 μM His-peptide, Ni-agarose beads, 2 hr at 4° C.
# T2 construct: expressed in transfected cells; host or cells: HEK293_T, lysed in 1% NP-40 buffer
# Method: as §1, §2
# [1] = peptide solubility (observation)
# TLRs = experiment: TLR responses in human cells; assay type: cell-based
# TLR4 = assay type: cell-based, human; details: THP-1; peptide 20 or 40 μM 1 h before 100 ng/ml LPS; 6 h
# [2] = tested on: LPS-induced inflammatory mediators; details: Tsung et al, 2007; cited from earlier work
# [3] = tested on: bacterial-induced inflammation; details: murine model; McCoy et al, 2005; cited from earlier work
# T2 sequence (P58753 whole entry): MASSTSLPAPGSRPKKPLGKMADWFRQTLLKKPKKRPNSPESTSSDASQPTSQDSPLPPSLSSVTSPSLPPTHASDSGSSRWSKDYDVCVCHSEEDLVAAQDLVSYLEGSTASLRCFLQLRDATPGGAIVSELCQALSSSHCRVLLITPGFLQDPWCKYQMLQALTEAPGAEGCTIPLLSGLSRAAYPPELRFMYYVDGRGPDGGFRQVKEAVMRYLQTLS
# T1 sequence (Q86XR7 whole entry): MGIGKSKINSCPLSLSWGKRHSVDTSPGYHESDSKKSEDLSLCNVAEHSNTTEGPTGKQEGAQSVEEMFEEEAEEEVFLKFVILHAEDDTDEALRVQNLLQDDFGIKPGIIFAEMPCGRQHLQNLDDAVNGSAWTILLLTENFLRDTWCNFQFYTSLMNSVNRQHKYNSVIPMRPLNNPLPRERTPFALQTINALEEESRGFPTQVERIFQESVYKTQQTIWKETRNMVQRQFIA
# Sequence of TLR4 (O00206 24-839): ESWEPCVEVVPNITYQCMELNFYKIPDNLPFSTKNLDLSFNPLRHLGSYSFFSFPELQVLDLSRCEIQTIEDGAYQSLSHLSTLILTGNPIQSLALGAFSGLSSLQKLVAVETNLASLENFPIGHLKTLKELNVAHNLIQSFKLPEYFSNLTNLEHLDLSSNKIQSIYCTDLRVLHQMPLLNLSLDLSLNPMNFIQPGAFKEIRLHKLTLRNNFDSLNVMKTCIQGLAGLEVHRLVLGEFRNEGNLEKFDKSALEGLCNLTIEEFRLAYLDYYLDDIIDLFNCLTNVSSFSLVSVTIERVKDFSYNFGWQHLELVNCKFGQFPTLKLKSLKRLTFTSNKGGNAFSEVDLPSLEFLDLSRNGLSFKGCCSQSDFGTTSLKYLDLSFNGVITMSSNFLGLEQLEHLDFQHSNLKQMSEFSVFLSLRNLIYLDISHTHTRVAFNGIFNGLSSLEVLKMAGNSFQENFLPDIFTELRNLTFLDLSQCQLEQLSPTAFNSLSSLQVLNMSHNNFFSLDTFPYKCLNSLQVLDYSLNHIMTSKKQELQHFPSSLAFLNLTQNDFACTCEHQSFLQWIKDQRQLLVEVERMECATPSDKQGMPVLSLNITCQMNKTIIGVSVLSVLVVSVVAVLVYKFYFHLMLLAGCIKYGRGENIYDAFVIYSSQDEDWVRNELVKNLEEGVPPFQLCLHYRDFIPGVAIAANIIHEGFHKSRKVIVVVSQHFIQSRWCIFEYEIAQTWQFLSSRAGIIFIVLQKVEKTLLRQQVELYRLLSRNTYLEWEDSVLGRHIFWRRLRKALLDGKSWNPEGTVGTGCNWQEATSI
# Sequence of TLR4 (Q9Y6Y9 17-160 partner limits assumed): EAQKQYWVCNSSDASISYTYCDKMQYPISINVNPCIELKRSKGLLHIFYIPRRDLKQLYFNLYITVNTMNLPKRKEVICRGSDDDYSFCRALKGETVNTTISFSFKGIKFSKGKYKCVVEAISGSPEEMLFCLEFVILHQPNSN
substance,measurement,setting,value
H-H-H-H-H-H-KYSFKLILAEY (HHHHHHKYSFKLILAEY) [His-A464],pulldown of overexpressed TRAM,TRAM,capable of pulling down overexpressed Mal or TRAM
same,pulldown of overexpressed Mal,Mal,capable of pulling down overexpressed Mal or TRAM
H-H-H-H-H-H-RNTISGNIYSA [His-A467],pulldown of overexpressed TRAM,TRAM,not
same,pulldown of overexpressed Mal,Mal,not
"KYSFKLILAAYRRRRRRRRR [Peptide E10A, KYSFKLILAAY-9R]",solubility of the peptide,[1],insoluble
P13 (DIVKLTVYDCIRRRRRRRRR) [Peptide P13],ability to block TLR responses in human cells,TLRs,unable to block TLR responses in human cells
same,inhibition of LPS-induced TNFα production,TLR4,"even at a high dose of 40 μM, was ineffective at inhibiting TLR4"
same,reduction of LPS-induced inflammatory mediators in mice,[2],can reduce
same,reduction of in vivo bacterial-induced inflammation,[3],can reduce
